From patent US20250170100A1, “MONOACYLGLYCEROL LIPASE INHIBITORS AND USE THEREOF FOR THE TREATMENT OF ANXIETY AND RELATED CONDITIONS” (Psy Therapeutics, Inc., priority 2021, published 2025)
pIC50: −log10 of the molar value. Where two headings read alike, the source gives them in different places.

Target: human MAGL (Homo sapiens (Human), UniProt Q99685)
Experiment: MAGL inhibition potency assay with 4NPA substrate (methods of Table C)
Assay type: biochemical
[1] = Method 2: Cayman Chemical MAGL enzyme, 10 nM, read-out: Potency (MAGL inhibition)
[2] = Method 12: Reaction Biology MAGL enzyme, 15 nM, read-out: Potency (MAGL inhibition)

Sequence of human MAGL (Q99685 2-303): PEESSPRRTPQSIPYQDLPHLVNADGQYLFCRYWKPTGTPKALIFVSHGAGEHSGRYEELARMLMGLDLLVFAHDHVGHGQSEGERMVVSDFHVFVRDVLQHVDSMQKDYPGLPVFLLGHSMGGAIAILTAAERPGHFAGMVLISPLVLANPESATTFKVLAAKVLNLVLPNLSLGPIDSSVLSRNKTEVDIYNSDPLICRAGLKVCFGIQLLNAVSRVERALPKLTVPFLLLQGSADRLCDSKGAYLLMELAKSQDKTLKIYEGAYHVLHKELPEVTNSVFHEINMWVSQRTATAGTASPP

| pIC50 [1] | Compound | also measured |
| --- | --- | --- |
| < 5.00 | Cc1cc(C2CC3(C2)CN(C(=N)c2cc(O)ccc2F)C3)n(-c2ccccc2C)n1 [Compound 144] | – |
| < 5.00 | COc1cc(F)ccc1C(=O)N1CC2(CC(c3cc(C)nn3-c3ccccc3C)C2)C1 [Compound 149] | – |
| < 5.00 | Cc1cc(C2CC3(C2)CN(C2CCOc4ccccc42)C3)n(-c2ccccc2C)n1 (centres unmarked) [Compound 152] | – |
| < 5.00 | Cc1cc(C2CC3(C2)CN([C@@H]2CCOc4ccccc42)C3)n(-c2ccccc2C)n1 [Compound 153] | – |
| < 5.00 | Cc1cc(C2CC3(C2)CN([C@H]2COc4ccccc42)C3)n(-c2ccccc2C)n1 [Compound 154] | – |
| < 5.00 | Cc1cc(C2CC3(C2)CN([C@@H]2COc4ccccc42)C3)n(-c2ccccc2C)n1 [Compound 155] | – |
| – | Cc1cc(C2CC3(C2)CN(C(=O)c2ccc(F)cc2OCC(F)(F)F)C3)n(-c2ccccc2C)n1 [Compound 178, [4-fluoro-2-(2,2,2-trifluoroethoxy)phenyl]{6-[3-methyl-1-(o-tolyl)-5-pyrazolyl]-2-aza-2-spiro[3.3]heptyl}methanone] | pIC50 (Method 2: Cayman Chemical MAGL enzyme, 10 nM, read-out: MAGL Potency (Detection Method)): > 7.30; pIC50 (Method 3: Reaction Biology MAGL enzyme, 10 nM, read-out: MAGL Potency (Detection Method)): > 7.30; pIC50 (Method 5: Cayman Chemical MAGL enzyme, 25 nM, read-out: MAGL Potency (Detection Method)): > 7.30 |
| < 5.00 | Cc1cc(C2CC3(C2)CN(C(=O)c2ccoc2)C3)n(-c2ccccc2C)n1 [Compound 179] | – |
| < 5.00 | Cc1cc(C2CC3(C2)CN(C(=O)c2cccn2C)C3)n(-c2ccccc2C)n1 [Compound 181] | – |
| < 5.00 | Cc1cc(C2CC3(C2)CN(C(=O)c2ccn(C)c2)C3)n(-c2ccccc2C)n1 [Compound 182] | – |
| < 5.00 | Cc1cc(C2CC3(C2)CN(C(=O)c2ccc[nH]2)C3)n(-c2ccccc2C)n1 [Compound 183] | – |
| < 5.00 | Cc1cc(C2CC3(C2)CN(C(=O)c2cc[nH]c2)C3)n(-c2ccccc2C)n1 [Compound 184] | – |
| < 5.00 | CCOc1cc(F)ccc1C(=O)N1CC2(CC(C(=O)Nc3ccccc3C)C2)C1 [Compound 188] | – |
| – | CCOc1cc(F)ccc1C(=O)N1CC2(CC(C(=O)N(C)c3cccnc3C)C2)C1 [Compound 198] | pIC50 (Method 4: Cayman Chemical MAGL enzyme, 15 nM, read-out: Potency (MAGL inhibition)): < 5.00 |
| – | Cc1cc(-c2cc(F)ccc2C)n(C2CC3(C2)CN(C(=O)c2ccc(F)cc2OC(F)(F)F)C3)n1 [Compound 427] | pIC50 (Method 11: Reaction Biology MAGL enzyme, Conc 20 (text: 25 nM), read-out: Potency (MAGL inhibition)): < 5.00 |
| – | Cc1cnn(C2CC3(C2)CN(C(=O)c2cc(O)ccc2F)C3)c1-c1ccccc1F [Compound 494] | pIC50 [2]: < 5.00 |
| – | Cc1cn(C2CC3(C2)CN(C(=O)c2cc(O)ccc2C(F)(F)F)C3)nc1-c1ccccc1F [Compound 495] | pIC50 [2]: < 5.00 |
| – | O=C(c1c(F)cccc1OC1CC1)N1CC2(CC(n3ncc(C(F)(F)F)c3-c3ccccc3F)C2)C1 [Compound 521] | pIC50 [2]: < 5.00 |
